In PubChem BioAssay (NCI):
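Grown in 96-well plates, cells were treated for 48 hours with each compound at five concentrations. Insufficient inhibition: endpoint recorded as highest concentration tested. Abbreviation: GI50, concentration required for 50% inhibition of growth. TGI is the concentration that stops growth completely.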 Where a SMILES comes first, the peptide text is derived from it. The star is where a group is joined. ONb = O=[N+]([O-])c1ccc(CO*)cc1; Boc = CC(C)(C)OC(=O)*

Tests used:
Test in all cases: NCI tumour cell line growth inhibition, 48 h
[1] = test system: ACHN renal
[2] = test system: MOLT-4 leukemia
[3] = test system: OVCAR-5 ovarian
[4] = test system: SF-539 CNS
[5] = test system: SNB-19 CNS
[6] = test system: U251 CNS
[7] = test system: UO-31 renal
[8] = test system: RXF 393 renal
[9] = test system: KM12 colon
[10] = test system: MDA-MB-435

CC(C)CC(NC(=O)OC(C)(C)C)C(=O)NC(CCC(=O)OCc1ccc([N+](=O)[O-])cc1)C(=O)OCc1ccc([N+](=O)[O-])cc1 (stereo not drawn) (Boc-Leu-Glu(ONb)-ONb; configuration not given here)
TGI [1]: > 100 µM
TGI [2]: 39.8 µM
TGI [3]: > 100 µM
TGI [4]: 37.2 µM
TGI [5]: > 100 µM
TGI [6]: > 100 µM
TGI [7]: > 100 µM

CN(C)c1ccc(C(Cc2ccc3ccccc3n2)Cc2ccc3ccccc3n2)cc1
GI50 [8]: 3.48 µM
TGI [8]: 9.11 µM
GI50 [4]: 4.74 µM
TGI [4]: > 100 µM
GI50 [7]: 1.96 µM
TGI [7]: > 100 µM

CCOc1ccc(/C=N/[N+](C)(C)C)cc1OCC
TGI [1]: > 10 µM
TGI [9]: > 10 µM
TGI [10]: > 10 µM
TGI [2]: > 10 µM
TGI [3]: > 10 µM
TGI [4]: > 10 µM
TGI [5]: > 10 µM
TGI [6]: > 10 µM

O=C(Cc1nccc2c1[nH]c1ccccc12)OC1C#CCSCC#C/C=C\1 (stereo not given)
TGI [1]: > 100 µM
TGI [9]: > 100 µM
TGI [10]: > 100 µM
TGI [2]: > 100 µM
TGI [8]: > 100 µM
TGI [4]: > 100 µM
TGI [5]: > 100 µM
TGI [6]: > 100 µM
TGI [7]: > 100 µM

CN1C(=O)[C@@H]2[C@@H]3c4ccccc4N(S(=O)(=O)C(F)(F)F)[C@@H]3c3[nH]c4ccccc4c3[C@@H]2C1=O
TGI [1]: > 100 µM
TGI [10]: > 100 µM
TGI [2]: 47 µM
TGI [3]: > 100 µM
TGI [8]: > 100 µM
TGI [4]: > 100 µM
TGI [5]: > 100 µM
TGI [6]: > 100 µM
TGI [7]: > 100 µM

O=C1/C(=C/c2ccc(Cl)cc2)N=C(c2ccccc2)N1CCc1cccs1
GI50 [1]: 28.8 µM
TGI [1]: > 100 µM
GI50 [9]: 22 µM
TGI [9]: > 100 µM
GI50 [10]: 28 µM
TGI [10]: > 100 µM
GI50 [2]: 16.5 µM
TGI [2]: > 100 µM
GI50 [3]: 61.2 µM
TGI [3]: > 100 µM
GI50 [8]: 23.3 µM
TGI [8]: > 100 µM
GI50 [4]: 48.2 µM
TGI [4]: > 100 µM
GI50 [5]: 29.4 µM
TGI [5]: > 100 µM
GI50 [6]: 22.4 µM
TGI [6]: > 100 µM

CCc1ccc2nc(-c3ccc(O)cc3)sc2c1
TGI [1]: 38.2 µM
TGI [9]: 32.7 µM
TGI [10]: 39.5 µM
TGI [2]: 40.8 µM
TGI [3]: 28.6 µM
TGI [4]: 27.8 µM
TGI [5]: 35.5 µM
TGI [6]: 33.6 µM
TGI [7]: 24.4 µM

CC1(CCCO)CCCCCCCCCC(C)(CCCO)C1=O (stereo not given)
TGI [1]: > 100 µM
TGI [9]: > 100 µM
TGI [10]: > 100 µM
TGI [2]: > 100 µM
TGI [3]: > 100 µM
TGI [8]: > 100 µM
TGI [5]: > 100 µM
TGI [6]: > 100 µM
TGI [7]: > 100 µM

Nc1nc(N)c2ncn(Cc3ccccc3CCl)c2n1
TGI [1]: > 100 µM
TGI [9]: > 100 µM
TGI [10]: > 100 µM
TGI [2]: > 100 µM
TGI [3]: > 100 µM
TGI [4]: > 100 µM
TGI [5]: > 100 µM
TGI [6]: > 100 µM
TGI [7]: > 100 µM

CCOC(=O)C1OC(C2(C)OC3(OC4(C=CC3O)OC(C(C)C(=O)C(C)C(O)C(C)CC(C)c3c(Cl)cc(C)c(O)c3C(=O)O)C(C)CC4C)C(C)C2OC)CC1O (stereo not given)
TGI [1]: 6.78 µM
TGI [9]: 6.41 µM
TGI [10]: 1.22 µM
TGI [3]: 21 µM
TGI [4]: 7.51 µM
TGI [6]: 4.24 µM
TGI [7]: 3.95 µM

Cc1ccc(OC2CC(n3cnc4ncnc(Cl)c43)OC2Oc2ccc(C)cc2)cc1 (stereo not given)
TGI [1]: 10.5 µM
TGI [9]: 74.4 µM
TGI [10]: > 100 µM
TGI [2]: > 100 µM
TGI [3]: 58.3 µM
TGI [4]: 31.5 µM
TGI [5]: 42.5 µM
TGI [6]: > 100 µM
TGI [7]: 23.9 µM
